We go through 30 compounds from US10351547B2, “Somatostatin modulators and uses thereof” (priority 2016, dated 2019).

For the first experiment, the target named is human SSTR2 (Homo sapiens (Human), UniProt P30874). The experiment is described as follows: Human SSTR2 intracellular cAMP functional assay for agonists (HTRF). The format is cell-based.
Chain of human SSTR2 (P30874 whole entry): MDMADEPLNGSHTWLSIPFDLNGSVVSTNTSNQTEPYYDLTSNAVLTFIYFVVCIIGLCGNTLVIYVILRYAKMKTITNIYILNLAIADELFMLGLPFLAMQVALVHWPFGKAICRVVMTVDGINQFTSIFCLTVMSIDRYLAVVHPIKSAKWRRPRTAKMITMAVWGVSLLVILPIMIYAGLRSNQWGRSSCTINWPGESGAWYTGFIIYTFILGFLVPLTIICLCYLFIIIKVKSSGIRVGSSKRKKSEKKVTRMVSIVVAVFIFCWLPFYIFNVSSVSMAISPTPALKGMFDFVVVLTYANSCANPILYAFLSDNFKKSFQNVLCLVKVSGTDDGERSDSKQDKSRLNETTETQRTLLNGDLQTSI
Conditions: not given
In a few lines:
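Cells bearing human SSTR2 exposed to compound for 20 minutes at 37 °C; after lysis, cAMP measured by time-resolved fluorescence (HTRF) and converted via a standard curve. EC50 calculated from cAMP versus compound concentration.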
(In TR-FRET formats the signal depends on donor and acceptor labels being close together.)
One may read the EC50 as the concentration that produces a half-maximal response. `Cc1cc(Cl)cc(-c2cnc3ccc(-c4cccc(C#N)c4O)cc3c2N2CC(CN)C2)c1` [2-13, 3-{4-[3-(aminomethyl)azetidin-1-yl]-3-(3-chloro-5-methylphenyl)quinolin-6-yl}-2-hydroxybenzonitrile] registered an EC50 of 10 to 100 nM.

The compound `Cc1cc(F)cc(-c2cnc3ccc(-c4cc(F)cc(C(N)=O)c4)cc3c2N2CC(C)(CN)C2)c1` [2-14, 3-{4-[3-(aminomethyl)-3-methylazetidin-1-yl]-3-(3-fluoro-5-methylphenyl)quinolin-6-yl}-5-fluorobenzamide] displayed a concentration for a half-maximal effect (EC50) of 10 to 100 nM.

For the compound `CCNCC1CN(c2c(-c3cc(C)cc(F)c3)cnc3ccc(-c4cc(F)cc(C#N)c4O)cc23)C1` [2-18, 3-(4-{3-[(ethylamino)methyl]azetidin-1-yl}-3-(3-fluoro-5-methylphenyl)quinolin-6-yl)-5-fluoro-2-hydroxybenzonitrile], the EC50 was < 10 nM.

`N#Cc1cc(F)cc(-c2ccc3ncc(-c4cc(F)cc(Cl)c4)c(N4CC(CN)C4)c3c2)c1O` [2-21, 3-{4-[3-(aminomethyl)azetidin-1-yl]-3-(3-chloro-5-fluorophenyl)quinolin-6-yl}-5-fluoro-2-hydroxybenzonitrile] had an EC50 of 10 to 100 nM.

With `Cc1cc(Cl)cc(-c2cnc3ccc(-c4cc(F)cc(C#N)c4O)cc3c2N2CC(CN)C2)c1` [2-22, 3-{4-[3-(aminomethyl)azetidin-1-yl]-3-(3-chloro-5-methylphenyl)quinolin-6-yl}-5-fluoro-2-hydroxybenzonitrile], the EC50 is 10 to 100 nM.

The compound `N#Cc1cc(F)cc(-c2ccc3ncc(-c4cc(F)cc(F)c4)c(N4CC(CN)C4)c3c2)c1O` [2-23, 3-{4-[3-(aminomethyl)azetidin-1-yl]-3-(3,5-difluorophenyl)quinolin-6-yl}-5-fluoro-2-hydroxybenzonitrile] registered an EC50 of 100 to 1000 nM.

The compound `Cc1cc(F)cc(-c2cnc3ccc(-c4cc(F)cc(C#N)c4O)cc3c2N2CC(CNC3COC3)C2)c1` [2-33, 5-fluoro-3-[3-(3-fluoro-5-methylphenyl)-4-(3-{[(oxetan-3-yl)amino]methyl}azetidin-1-yl)quinolin-6-yl]-2-hydroxybenzonitrile] registered an EC50 of 10 to 100 nM.

On to `Cc1cc(F)cc(-c2cnc3ccc(-c4cc(F)cc(C#N)c4O)cc3c2N2CC(CN3CCOCC3)C2)c1` [2-35, 5-fluoro-3-[3-(3-fluoro-5-methylphenyl)-4-[3-(morpholin-4-ylmethyl)azetidin-1-yl]quinolin-6-yl]-2-hydroxybenzonitrile], for which the EC50 lay within 100 to 1000 nM.

As to `COCC(C)(C)NCC1CN(c2c(-c3cc(C)cc(F)c3)cnc3ccc(-c4cc(F)cc(C#N)c4O)cc23)C1` [2-39, 5-fluoro-3-[3-(3-fluoro-5-methylphenyl)-4-(3-{[(1-methoxy-2-methylpropan-2-yl)amino]methyl}azetidin-1-yl)quinolin-6-yl]-2-hydroxybenzonitrile], the EC50 lay within 100 to 1000 nM.

`CCC(CO)NCC1CN(c2c(-c3cc(C)cc(F)c3)cnc3ccc(-c4cc(F)cc(C#N)c4O)cc23)C1` (stereo not drawn) [2-41, 5-fluoro-3-[3-(3-fluoro-5-methylphenyl)-4-(3-{[(1-hydroxybutan-2-yl)amino]methyl}azetidin-1-yl)quinolin-6-yl]-2-hydroxybenzonitrile] had an EC50 of 10 to 100 nM.

With `CCN(CCO)CC1CN(c2c(-c3cc(C)cc(F)c3)cnc3ccc(-c4cc(F)cc(C#N)c4O)cc23)C1` [2-44, 3-[4-(3-{[ethyl(2-hydroxyethyl)amino]methyl}azetidin-1-yl)-3-(3-fluoro-5-methylphenyl)quinolin-6-yl]-5-fluoro-2-hydroxybenzonitrile], the EC50 lay within 100 to 1000 nM.

The compound `Cc1cc(F)cc(-c2cnc3ccc(-c4cc(F)cc(C#N)c4O)cc3c2N2CC(CNC3CCOC3)C2)c1` (stereo not drawn) [2-45, 5-fluoro-3-[3-(3-fluoro-5-methylphenyl)-4-(3-{[(oxolan-3-yl)amino]methyl}azetidin-1-yl)quinolin-6-yl]-2-hydroxybenzonitrile] had an EC50 of 10 to 100 nM.

With `Cc1cc(F)cc(-c2cnc3ccc(-c4cc(F)cc(C#N)c4O)cc3c2N2CC(CN3CCC(F)(F)C3)C2)c1` [2-47, 3-(4-{3-[(3,3-difluoropyrrolidin-1-yl)methyl]azetidin-1-yl}-3-(3-fluoro-5-methylphenyl)quinolin-6-yl)-5-fluoro-2-hydroxybenzonitrile], the EC50 is 100 to 1000 nM.

The experiment is the same for the next values; noted with them: CHO-K1 cells stably expressing human SSTR2; NKH477-stimulated cAMP; read-out: EC50 (inhibition of cAMP activities via human SST2R).
Consider `Cc1cc(Cl)cc(-c2cnc3ccc(-c4cc(F)cc(C#N)c4O)cc3c2N2CC(C)(CN)C2)c1` [2-15, 3-{4-[3-(aminomethyl)-3-methylazetidin-1-yl]-3-(3-chloro-5-methylphenyl)quinolin-6-yl}-5-fluoro-2-hydroxybenzonitrile], for which the concentration giving a half-maximal response (EC50) lay within 100 to 1000 nM.

As for `Cc1cc(F)cc(-c2cnc3ccc(-c4cc(F)cc(C#N)c4O)cc3c2N2CCC(N)CC2)c1` [2-16, 3-[4-(4-aminopiperidin-1-yl)-3-(3-fluoro-5-methylphenyl)quinolin-6-yl]-5-fluoro-2-hydroxybenzonitrile], the EC50 was < 10 nM.

In the case of `Cc1cc(F)cc(-c2cnc3ccc(-c4cc(F)cc(C#N)c4O)cc3c2N2CC(CN)C2)c1` [2-17, 3-{4-[3-(aminomethyl)azetidin-1-yl]-3-(3-fluoro-5-methylphenyl)quinolin-6-yl}-5-fluoro-2-hydroxybenzonitrile], the EC50 fell in the range of 10 to 100 nM.

On to `Cc1cc(F)cc(-c2cnc3ccc(-c4cc(F)cc(C#N)c4O)cc3c2N2CC(CNCCF)C2)c1` [2-24, 5-fluoro-3-[3-(3-fluoro-5-methylphenyl)-4-(3-{[(2-fluoroethyl)amino]methyl}azetidin-1-yl)quinolin-6-yl]-2-hydroxybenzonitrile], for which the EC50 was < 10 nM.

As to `Cc1cc(F)cc(-c2cnc3ccc(-c4cc(F)cc(C#N)c4O)cc3c2N2CC(CNC(C)C)C2)c1` [2-25, 5-fluoro-3-[3-(3-fluoro-5-methylphenyl)-4-(3-{[(propan-2-yl)amino]methyl}azetidin-1-yl)quinolin-6-yl]-2-hydroxybenzonitrile], the EC50 is < 10 nM.

Consider `CCNCC1CN(c2c(-c3cc(C)cc(F)c3)cnc3ccc(-c4cc(F)cc(C(N)=O)c4)cc23)C1` [2-26, 3-(4-{3-[(ethylamino)methyl]azetidin-1-yl}-3-(3-fluoro-5-methylphenyl)quinolin-6-yl)-5-fluorobenzamide], for which the EC50 was < 10 nM.

As to `COCCNCC1CN(c2c(-c3cc(C)cc(F)c3)cnc3ccc(-c4cc(F)cc(C#N)c4O)cc23)C1` [2-27, 3-[3-(3-fluoro-5-methylphenyl)-4-(3-{[(2-methoxyethyl)amino]methyl}azetidin-1-yl)quinolin-6-yl]-5-fluoro-2-hydroxybenzonitrile], the EC50 was < 10 nM.

On to `Cc1cc(F)cc(-c2cnc3ccc(-c4cc(F)cc(C#N)c4O)cc3c2N2CC(CNCCCF)C2)c1` [2-28, 5-fluoro-3-[3-(3-fluoro-5-methylphenyl)-4-(3-{[(3-fluoropropyl)amino]methyl}azetidin-1-yl)quinolin-6-yl]-2-hydroxybenzonitrile], for which the EC50 was < 10 nM.

Consider `Cc1cc(F)cc(-c2cnc3ccc(-c4cc(F)cc(C#N)c4O)cc3c2N2CC(CNC3CC3)C2)c1` [2-29, 3-[4-(3-cyclopropylaminomethyl-azetidin-1-yl)-3-(3-fluoro-5-methyl-phenyl)-quinolin-6-yl]-5-fluoro-2-hydroxy-benzonitrile], for which the EC50 is < 10 nM.

For the compound `Cc1cc(F)cc(-c2cnc3ccc(-c4cc(F)cc(C#N)c4O)cc3c2N2CC(CN3CCCC3)C2)c1` [2-30, 5-fluoro-3-[3-(3-fluoro-5-methyl-phenyl)-4-(3-pyrrolidin-1-ylmethyl-azetidin-1-yl)-quinolin-6-yl]-2-hydroxy-benzonitrile], the EC50 was < 10 nM.

Take `CCCNCC1CN(c2c(-c3cc(C)cc(F)c3)cnc3ccc(-c4cc(F)cc(C#N)c4O)cc23)C1` [2-31, 5-fluoro-3-[3-(3-fluoro-5-methylphenyl)-4-{3-[(propylamino)methyl]azetidin-1-yl}quinolin-6-yl]-2-hydroxybenzonitrile]: the EC50 was < 10 nM.

With `CCNCC1CN(c2c(-c3cc(C)cc(F)c3)cnc3ccc(-c4c(C)ccc(F)c4O)cc23)C1` [2-38, 2-(4-{3-[(ethylamino)methyl]azetidin-1-yl}-3-(3-fluoro-5-methylphenyl)quinolin-6-yl)-6-fluoro-3-methylphenol], the EC50 was < 10 nM.

Take `Cc1cc(F)cc(-c2cnc3ccc(-c4cc(F)cc(C#N)c4O)cc3c2N2CC(CNCC(C)(C)O)C2)c1` [2-40, 5-fluoro-3-[3-(3-fluoro-5-methylphenyl)-4-(3-{[(2-hydroxy-2-methylpropyl)amino]methyl}azetidin-1-yl)quinolin-6-yl]-2-hydroxybenzonitrile]: the EC50 is < 10 nM.

Regarding `CCCNCC1CN(c2c(-c3cc(C)cc(F)c3)cnc3ccc(-c4cccc(C#N)c4O)cc23)C1` [2-42, 3-[3-(3-fluoro-5-methylphenyl)-4-{3-[(propylamino)methyl]azetidin-1-yl}quinolin-6-yl]-2-hydroxybenzonitrile], the EC50 was < 10 nM.

`Cc1cc(F)cc(-c2cnc3ccc(-c4cc(F)cc(C#N)c4O)cc3c2N2CC(CNCCO)C2)c1` [2-43, 5-fluoro-3-[3-(3-fluoro-5-methylphenyl)-4-(3-{[(2-hydroxyethyl)amino]methyl}azetidin-1-yl)quinolin-6-yl]-2-hydroxybenzonitrile]: the EC50 is < 10 nM.

As to `CCCNCC1CN(c2c(-c3cc(C)cc(F)c3)cnc3ccc(-c4c(F)ccc(F)c4O)cc23)C1` [2-46, 3,6-difluoro-2-[3-(3-fluoro-5-methylphenyl)-4-{3-[(propylamino)methyl]azetidin-1-yl}quinolin-6-yl]phenol], the EC50 was < 10 nM.

`Cc1cc(F)cc(-c2cnc3ccc(-c4cc(F)cc(C#N)c4O)cc3c2N2CC(CN3CC[C@@H](F)C3)C2)c1` [2-48, 5-fluoro-3-[3-(3-fluoro-5-methylphenyl)-4-(3-{[(3R)-3-fluoropyrrolidin-1-yl]methyl}azetidin-1-yl)quinolin-6-yl]-2-hydroxybenzonitrile]: the EC50 is < 10 nM.
